Results: ChEMBL document CHEMBL2074356, “Direct evidence for peptide transporter (PepT1)-mediated uptake of a nonpeptide prodrug, valacyclovir” (Biochem Biophys Res Commun, 1998)
Non-standard residues stand in square brackets, D forms with d. Residues, ends and D or L forms follow the SMILES beside them. Sar = CNCC(=O)O

Assays:
[1] = molecular target: T1, Solute carrier family 15 member 1 (Homo sapiens) (UniProt P46059); test: TP_TRANSPORTER: inhibition of VACV uptake (VACV: 0.2 uM, Gly-Gly-Gly: 10000 uM) in Xenopus laevis oocytes; format: functional, cell-based; conditions: Oocyte
T1 sequence (whole entry): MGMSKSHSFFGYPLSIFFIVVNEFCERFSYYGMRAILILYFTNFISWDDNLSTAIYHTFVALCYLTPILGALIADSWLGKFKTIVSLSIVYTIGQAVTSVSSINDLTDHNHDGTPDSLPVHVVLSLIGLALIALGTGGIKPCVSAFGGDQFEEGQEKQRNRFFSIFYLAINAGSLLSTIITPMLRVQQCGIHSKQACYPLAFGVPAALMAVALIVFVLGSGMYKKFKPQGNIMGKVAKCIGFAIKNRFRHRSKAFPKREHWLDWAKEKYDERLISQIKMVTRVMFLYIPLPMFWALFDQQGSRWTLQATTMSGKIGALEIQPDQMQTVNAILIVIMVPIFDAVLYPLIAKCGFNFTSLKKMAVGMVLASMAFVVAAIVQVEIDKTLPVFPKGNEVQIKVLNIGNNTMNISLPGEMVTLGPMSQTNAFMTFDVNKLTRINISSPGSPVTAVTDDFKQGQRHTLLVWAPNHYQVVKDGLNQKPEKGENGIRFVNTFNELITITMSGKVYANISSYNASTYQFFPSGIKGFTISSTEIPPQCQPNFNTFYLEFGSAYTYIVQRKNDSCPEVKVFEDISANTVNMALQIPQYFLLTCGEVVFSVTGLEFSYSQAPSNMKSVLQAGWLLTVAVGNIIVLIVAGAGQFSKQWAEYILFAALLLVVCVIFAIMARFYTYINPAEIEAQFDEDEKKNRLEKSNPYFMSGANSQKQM

[2] = molecular target: T2, Solute carrier family 15 member 1 (Homo sapiens, UniProt P46059); test: TP_TRANSPORTER: inhibition of Gly-Sar uptake in Xenopus laevis oocytes; format: functional, cell-based, Oocyte
T2 sequence (P46059 whole entry): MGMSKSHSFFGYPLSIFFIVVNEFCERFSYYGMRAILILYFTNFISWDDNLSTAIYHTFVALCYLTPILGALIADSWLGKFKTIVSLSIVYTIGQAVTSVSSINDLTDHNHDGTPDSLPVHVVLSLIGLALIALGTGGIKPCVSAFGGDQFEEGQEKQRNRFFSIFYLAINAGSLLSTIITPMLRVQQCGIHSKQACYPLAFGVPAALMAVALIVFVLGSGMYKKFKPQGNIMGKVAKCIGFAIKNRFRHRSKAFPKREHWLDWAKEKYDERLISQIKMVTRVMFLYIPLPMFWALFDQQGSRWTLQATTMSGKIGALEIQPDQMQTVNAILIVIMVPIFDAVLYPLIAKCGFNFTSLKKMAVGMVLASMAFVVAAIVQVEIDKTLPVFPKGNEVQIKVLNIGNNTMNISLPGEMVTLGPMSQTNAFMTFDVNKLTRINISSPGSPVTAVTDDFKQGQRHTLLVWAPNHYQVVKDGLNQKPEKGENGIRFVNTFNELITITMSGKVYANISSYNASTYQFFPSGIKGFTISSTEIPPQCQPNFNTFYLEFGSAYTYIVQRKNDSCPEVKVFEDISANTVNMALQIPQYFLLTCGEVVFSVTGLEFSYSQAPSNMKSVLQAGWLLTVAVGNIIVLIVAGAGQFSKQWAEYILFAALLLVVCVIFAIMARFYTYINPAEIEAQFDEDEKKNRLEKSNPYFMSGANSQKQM

[3] = molecular target: T1, Solute carrier family 15 member 1 (Homo sapiens); test: TP_TRANSPORTER: inhibition of VACV uptake (VACV: 0.2 uM, Gly-Sar: 10000 uM) in Xenopus laevis oocytes; format: functional, cell-based; conditions: Oocyte
[4] = molecular target: T1, Solute carrier family 15 member 1 (Homo sapiens); test: TP_TRANSPORTER: inhibition of VACV uptake (VACV: 0.2 uM, Carnosine: 10000 uM) in Xenopus laevis oocytes; format: functional, cell-based; conditions: Oocyte
[5] = substrate: CC(C)[C@H](N)C(=O)OCCOCn1cnc2c(=O)nc(N)[nH]c21; conditions: Xenopus laevis; Oocyte

In the case of `NCC(=O)NCC(=O)NCC(=O)O`, the Activity [1] is reported as “inhibitor [55% (at a rough estimate) of control]”.

Work on `CC(C)[C@H](N)C(=O)OCCOCn1cnc2c(=O)[nH]c(N)nc21` [VALACYCLOVIR] yielded a Ki [2] of 4.08 mM.

`CN(CC(=O)O)C(=O)CN` (H-Gly-[Sar]-OH) was tested, and the Activity [3] was “inhibitor [55% (at a rough estimate) of control]”.

In the case of `NCCC(=O)N[C@@H](Cc1c[nH]cn1)C(=O)O`, the Activity [4] is reported as “inhibitor [70% (at a rough estimate) of control]”.

B1: Solute carrier family 15 member 1 (Homo sapiens), P46059 (protein)
chain: MGMSKSHSFFGYPLSIFFIVVNEFCERFSYYGMRAILILYFTNFISWDDNLSTAIYHTFVALCYLTPILGALIADSWLGKFKTIVSLSIVYTIGQAVTSVSSINDLTDHNHDGTPDSLPVHVVLSLIGLALIALGTGGIKPCVSAFGGDQFEEGQEKQRNRFFSIFYLAINAGSLLSTIITPMLRVQQCGIHSKQACYPLAFGVPAALMAVALIVFVLGSGMYKKFKPQGNIMGKVAKCIGFAIKNRFRHRSKAFPKREHWLDWAKEKYDERLISQIKMVTRVMFLYIPLPMFWALFDQQGSRWTLQATTMSGKIGALEIQPDQMQTVNAILIVIMVPIFDAVLYPLIAKCGFNFTSLKKMAVGMVLASMAFVVAAIVQVEIDKTLPVFPKGNEVQIKVLNIGNNTMNISLPGEMVTLGPMSQTNAFMTFDVNKLTRINISSPGSPVTAVTDDFKQGQRHTLLVWAPNHYQVVKDGLNQKPEKGENGIRFVNTFNELITITMSGKVYANISSYNASTYQFFPSGIKGFTISSTEIPPQCQPNFNTFYLEFGSAYTYIVQRKNDSCPEVKVFEDISANTVNMALQIPQYFLLTCGEVVFSVTGLEFSYSQAPSNMKSVLQAGWLLTVAVGNIIVLIVAGAGQFSKQWAEYILFAALLLVVCVIFAIMARFYTYINPAEIEAQFDEDEKKNRLEKSNPYFMSGANSQKQM
In the case of B1, the Km [5] is reported as 5.94 mM.
